Laboratory results as given in PMC9403976, “Elucidating the path to Plasmodium prolyl-tRNA synthetase inhibitors that overcome halofuginone resistance” (Nature Communications, 2022).
Where “and” joins values, the source holds several entries; their conditions need not be identical. Equal values may be shown once. Read-outs that look alike come from different tables or passages of the source.

What was measured:
Format in all cases: cell-based, Plasmodium falciparum
[1] = system: halofuginone-induced P. falciparum (elevated proline homeostasis); experiment: P. falciparum ABS growth assay, SYBR Green, 72 h, halofuginone-induced parasites; settings: for parasite growth, replicate wells (Fig 1b): Halofuginone-Induced
Summary of the method: (§1)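 Asexual blood-stage Dd2 parasites, 1% parasitemia/1% hematocrit, RPMI + 0.5% Albumax; triplicate dose-response, 72 h. Readout SYBR Green 1 fluorescence. Controls: 10 μM dihydroartemisinin (kill), no compound (growth). EC50 values determined.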

[2] = system: HFGR-I P. falciparum (elevated proline homeostasis and PfcProRS^L482H); experiment: P. falciparum ABS growth assay, SYBR Green, 72 h, HFGR-I parasites; settings: for parasite growth, replicate wells (Fig 1b): HFGR-I
Summary of the method: as §1

P. falciparum Dd2-2D4 [3] = experiment: P. falciparum ABS short-term resistance susceptibility assay; settings: wild-type parasites under intermittent drug pressure
Method: Following recrudescence, sensitivity to NCP26 and halofuginone was assayed using the ABS growth assay.

P. falciparum Dd2-2D4 [4] = experiment: P. falciparum asexual blood stage (ABS) growth assay, SYBR Green, 72 h, wild-type parasites; settings: for ABS growth dose-response, normalized signal (Replicates 1-3) / parasite growth, replicate wells (Fig 1b): Dd2-2D4
[5] = system: P. falciparum Dd2-2D4 NCP26 selections S1-3; experiment: ABS growth assay on bulk populations and clones from NCP26 resistance selections S1-3; settings: for EC50: Plasmodium falciparum
[6] = Log[inhibitor] (M) -5.602, listed as NCP26 (3)
[7] = Log[inhibitor] (M) -6.806, listed as NCP26 (3)
[8] = Log[inhibitor] (M) -7.107, listed as NCP26 (3)
[9] = Log[inhibitor] (M) -7.408, listed as NCP26 (3)
[10] = Log[inhibitor] (M) -7.709, listed as NCP26 (3)
[11] = Log[inhibitor] (M) -8.010, listed as NCP26 (3)

O=C(NC1Cc2ccccc2C1)c1nccnc1NC(=O)N1CCCCC1 [NCP26]
parasite growth, replicate wells (Fig 1b) ([1]; Log[inhibitor] (M) -4.699, listed as NCP26 (3)): 0.00E+00 and -1.00E+00 and -2.00E+00
parasite growth, replicate wells (Fig 1b) ([1]; Log[inhibitor] (M) -5.000, listed as NCP26 (3)): 1.00E+00 (2×) and -1.00E+00
parasite growth, replicate wells (Fig 1b) ([1]; Log[inhibitor] (M) -5.301, listed as NCP26 (3)): -1.00E+00 (2×) and 7.00E+00
parasite growth, replicate wells (Fig 1b) [1, 6]: 1.00E+00 and 5.00E+00 and 0.00E+00
parasite growth, replicate wells (Fig 1b) ([1]; Log[inhibitor] (M) -5.903, listed as NCP26 (3)): 0.00E+00 and -1.00E+00 (2×)
parasite growth, replicate wells (Fig 1b) ([1]; Log[inhibitor] (M) -6.204): -2.00E+00
parasite growth, replicate wells (Fig 1b) ([1]; Log[inhibitor] (M) -6.505, listed as NCP26 (3)): 0.00E+00 (2×) and -1.00E+00
parasite growth, replicate wells (Fig 1b) [1, 7]: 1.80E+01 (2×) and 1.90E+01
parasite growth, replicate wells (Fig 1b) [1, 8]: 9.50E+01 and 8.90E+01 and 9.10E+01
parasite growth, replicate wells (Fig 1b) [1, 9]: 1.05E+02 and 1.12E+02 and 1.07E+02
parasite growth, replicate wells (Fig 1b) [1, 10]: 1.09E+02 and 1.08E+02 and 1.10E+02
parasite growth, replicate wells (Fig 1b) [1, 11]: 9.90E+01 and 1.01E+02 and 1.04E+02
dose-response value, Replicates 1-3 (SI Fig 2e) ([1]; Log[inhibitor] (M) -6.204): -2.0
parasite growth, replicate wells (Fig 1b) ([2]; Log[inhibitor] (M) -4.699): 0.00E+00
parasite growth, replicate wells (Fig 1b) ([2]; Log[inhibitor] (M) -5.000): 0.00E+00
parasite growth, replicate wells (Fig 1b) ([2]; Log[inhibitor] (M) -5.301): 0.00E+00
parasite growth, replicate wells (Fig 1b) [2, 6]: 0.00E+00 and 1.00E+00 (2×)
parasite growth, replicate wells (Fig 1b) ([2]; Log[inhibitor] (M) -5.903): 0.00E+00
parasite growth, replicate wells (Fig 1b) ([2]; Log[inhibitor] (M) -6.204): 0.00E+00
parasite growth, replicate wells (Fig 1b) ([2]; Log[inhibitor] (M) -6.505): 1.00E+00
parasite growth, replicate wells (Fig 1b) [2, 7]: 7.00E+00 (2×) and 6.00E+00
parasite growth, replicate wells (Fig 1b) [2, 8]: 3.90E+01 and 3.70E+01 (2×)
parasite growth, replicate wells (Fig 1b) [2, 9]: 9.90E+01 and 1.07E+02 and 1.00E+02
parasite growth, replicate wells (Fig 1b) [2, 10]: 1.11E+02 (2×) and 1.00E+02
parasite growth, replicate wells (Fig 1b) [2, 11]: 1.08E+02 and 1.07E+02 and 1.06E+02
dose-response value, Replicates 1-3 (SI Fig 2f) ([2]; Log[inhibitor] (M) -4.699): 0
dose-response value, Replicates 1-3 (SI Fig 2f) ([2]; Log[inhibitor] (M) -5.000): 0
dose-response value, Replicates 1-3 (SI Fig 2f) ([2]; Log[inhibitor] (M) -5.301): 0
dose-response value, Replicates 1-3 (SI Fig 2f) ([2]; Log[inhibitor] (M) -5.903): 0
dose-response value, Replicates 1-3 (SI Fig 2f) ([2]; Log[inhibitor] (M) -6.204): 0
dose-response value, Replicates 1-3 (SI Fig 2f) ([2]; Log[inhibitor] (M) -6.505): 1
induction of rapid resistance (P. falciparum Dd2-2D4 [3]): did not induce rapid resistance
ABS growth dose-response, normalized signal (Replicates 1-3) (P. falciparum Dd2-2D4 [4]; Log[inhibitor] (M) -4.699): 0
parasite growth, replicate wells (Fig 1b) (P. falciparum Dd2-2D4 [4]; Log[inhibitor] (M) -4.699): 0.00E+00
ABS growth dose-response, normalized signal (Replicates 1-3) (P. falciparum Dd2-2D4 [4]; Log[inhibitor] (M) -5.000): 0
parasite growth, replicate wells (Fig 1b) (P. falciparum Dd2-2D4 [4]; Log[inhibitor] (M) -5.000): 0.00E+00
ABS growth dose-response, normalized signal (Replicates 1-3) (P. falciparum Dd2-2D4 [4]; Log[inhibitor] (M) -5.301): 0
parasite growth, replicate wells (Fig 1b) (P. falciparum Dd2-2D4 [4]; Log[inhibitor] (M) -5.301): 0.00E+00
ABS growth dose-response, normalized signal (Replicates 1-3) (P. falciparum Dd2-2D4 [4]; Log[inhibitor] (M) -5.602): 0
parasite growth, replicate wells (Fig 1b) (P. falciparum Dd2-2D4 [4]; Log[inhibitor] (M) -5.602): 0.00E+00
ABS growth dose-response, normalized signal (Replicates 1-3) (P. falciparum Dd2-2D4 [4]; Log[inhibitor] (M) -5.903): 0
parasite growth, replicate wells (Fig 1b) (P. falciparum Dd2-2D4 [4]; Log[inhibitor] (M) -5.903): 0.00E+00
ABS growth dose-response, normalized signal (Replicates 1-3) (P. falciparum Dd2-2D4 [4]; Log[inhibitor] (M) -6.204): 0
parasite growth, replicate wells (Fig 1b) (P. falciparum Dd2-2D4 [4]; Log[inhibitor] (M) -6.204): 0.00E+00
ABS growth dose-response, normalized signal (Replicates 1-3) (P. falciparum Dd2-2D4 [4]; Log[inhibitor] (M) -6.505): 0
parasite growth, replicate wells (Fig 1b) (P. falciparum Dd2-2D4 [4]; Log[inhibitor] (M) -6.505): 0.00E+00
parasite growth, replicate wells (Fig 1b) (P. falciparum Dd2-2D4 [4]; [7]): 6.00E+00 (2×) and 5.00E+00
parasite growth, replicate wells (Fig 1b) (P. falciparum Dd2-2D4 [4]; [8]): 3.30E+01 and 2.80E+01 and 3.00E+01
parasite growth, replicate wells (Fig 1b) (P. falciparum Dd2-2D4 [4]; [9]): 9.50E+01 and 9.40E+01 and 9.90E+01
parasite growth, replicate wells (Fig 1b) (P. falciparum Dd2-2D4 [4]; [10]): 1.09E+02 and 1.04E+02 and 1.02E+02
ABS growth dose-response, normalized signal (Replicates 1-3) (P. falciparum Dd2-2D4 [4]; Log[inhibitor] (M) -8.010): 101
parasite growth, replicate wells (Fig 1b) (P. falciparum Dd2-2D4 [4]; Log[inhibitor] (M) -8.010): 1.01E+02
EC50 (P. falciparum Dd2-2D4 [4]; Plasmodium falciparum, DD2, SI Fig 16b, values on -log scale, read-out: ABS - Dd2-2D4 (converted)): 67.5 nM
EC50 ([5]; DD2, cell line S1 - Clone A8, read-out: EC50 [nM] mean): 68.1 nM
EC50 ([5]; DD2, cell line S1 - bulk population, read-out: EC50 [nM] mean): 102 nM
EC50 ([5]; DD2, cell line S2 - Clone A3, read-out: EC50 [nM] mean): 1240 nM
EC50 ([5]; DD2, cell line S2 - Clone B9, read-out: EC50 [nM] mean): 2930 nM
EC50 ([5]; DD2, cell line S2 - Clone C5, read-out: EC50 [nM] mean): 1580 nM
EC50 ([5]; DD2, cell line S2 - bulk population, read-out: EC50 [nM] mean): 1340 nM
EC50 ([5]; DD2, cell line S3 - Clone B3, read-out: EC50 [nM] mean): 2810 nM
EC50 ([5]; DD2, cell line S3 - Clone B7, read-out: EC50 [nM] mean): 2450 nM
EC50 ([5]; DD2, cell line S3 - bulk population, read-out: EC50 [nM] mean): 2000 nM
EC50 ([5]; DD2, read-out: EC50 [nM] mean, cell line S3 - Clone B2): 5110 nM
parasite growth, dose-response point ([5]; S1 - Clone A8, Log[NCP26] (M) -6.505): 1
parasite growth, dose-response point ([5]; S1 - Clone A8, Log[NCP26] (M) -6.806): 9
parasite growth, dose-response point ([5]; S1 - Clone A8, Log[NCP26] (M) -7.107): 33 and 29
parasite growth, dose-response point ([5]; S1 - Clone A8, Log[NCP26] (M) -7.408): 93 and 97 and 101
parasite growth, dose-response point ([5]; S2 - Clone A3, Log[NCP26] (M) -6.505): 93 and 92 and 86
parasite growth, dose-response point ([5]; S2 - Clone A3, Log[NCP26] (M) -6.806): 96 and 98 and 93
parasite growth, dose-response point ([5]; S2 - Clone A3, Log[NCP26] (M) -7.107): 100 and 98
parasite growth, dose-response point ([5]; S2 - Clone A3, Log[NCP26] (M) -7.408): 99 and 101 and 100
parasite growth, dose-response point ([5]; S2 - Clone B9, Log[NCP26] (M) -6.505): 98 and 112 and 97
parasite growth, dose-response point ([5]; S2 - Clone B9, Log[NCP26] (M) -6.806): 107 and 93 and 96
parasite growth, dose-response point ([5]; S2 - Clone B9, Log[NCP26] (M) -7.107): 96 and 110 and 113
parasite growth, dose-response point ([5]; S2 - Clone B9, Log[NCP26] (M) -7.408): 107 and 94 and 102
parasite growth, dose-response point ([5]; S2 - Clone B9, Log[NCP26] (M) -7.709): 99 and 93 and 94
parasite growth, dose-response point ([5]; S2 - Clone C5, Log[NCP26] (M) -6.505): 95 and 102
parasite growth, dose-response point ([5]; S2 - Clone C5, Log[NCP26] (M) -6.806): 98 and 100 and 101
parasite growth, dose-response point ([5]; S2 - Clone C5, Log[NCP26] (M) -7.107): 101 and 97
parasite growth, dose-response point ([5]; S2 - Clone C5, Log[NCP26] (M) -7.408): 96 and 101 and 100
parasite growth, dose-response point ([5]; S2 - Clone C5, Log[NCP26] (M) -7.709): 102 and 105
parasite growth, dose-response point ([5]; S3 - Clone A6, Log[NCP26] (M) -6.505): 108 and 103 and 90
parasite growth, dose-response point ([5]; S3 - Clone A6, Log[NCP26] (M) -6.806): 101 and 97
parasite growth, dose-response point ([5]; S3 - Clone A6, Log[NCP26] (M) -7.107): 95 and 100 and 96
parasite growth, dose-response point ([5]; S3 - Clone A6, Log[NCP26] (M) -7.408): 112 and 100 and 105
